Assay results from ChEMBL document CHEMBL5303711, “ECBD screening data for assay EOS300108” (2023).
Counter-ions that a name gives are not always drawn. The source made the active and inactive calls. The rule behind the calls is not given here.

Test: Cytotoxicity activity against human HepG2 cells assessed by CellTiter-Glo luminescent cell viability assay.
Format: toxicity, cell-based
Parameters: assay stage confirmatory assay, source tissue liver
Details: HepG2 cells, read-out: IC50 relative

| Compound | CC50 |
| --- | --- |
| CC1OC(OC2CC(O)C3(CO)C4C(O)CC5(C)C(C6=CC(=O)OC6)CCC5(O)C4CCC3(O)C2)C(O)C(O)C1O (stereo not drawn) | 0.1 µM (active) |
| CC(N)Cc1ccc2oc3ccccc3c2c1 (stereo not drawn) | 8 µM (active) |
| CCCCNc1nc(-c2cc(C)ccn2)cs1 | 6.3 µM (active) |
| CC[C@@](NC(=O)c1csc(-c2ccoc2)n1)(C(N)=O)C(C)C | 5.2 µM (active) |
| Nc1ccccc1NC(=O)CCCCCC(=O)Nc1ccccc1 | 11.7 µM (active) |
| CC1(C)CC[C@]2(C(=O)O)CC[C@]3(C)C(=CC[C@@H]4[C@@]5(C)CCC(=O)C(C)(C)[C@@H]5CC[C@]43C)[C@@H]2C1 [OLEANONIC ACID] | 8.4 µM (inactive) |
| Cc1ccc2nc(NCCN)c3ncc(C)n3c2c1 | 1.9 µM (active) |
| CC(C)CN(CCS(=O)(=O)c1ccc(C(C)(C)C)cc1)C1CCN(C)CC1 | 4.4 µM (active) |
| COc1ccc(N(C(=O)Oc2c(C)cccc2C)c2ccnc(Nc3ccc(N4CCN(C)CC4)cc3)n2)c(OC)c1 | 3.3 µM (active) |
| COc1cccc(C(=O)/N=c2\sc(C)c(C)n2Cc2ccc(C(=O)NCCN(C)C)o2)c1 | 12.2 µM (active) |
| COc1cccc(-c2cc(F)ccc2[C@H]2Cc3nc(N)nc(C)c3C(=O)N2)n1 | < 0.1 µM (active) |
| CCCCN[C@H]1CS(=O)(=O)C[C@@H]1S(=O)(=O)c1ccc(Cl)cc1 | 9.3 µM (active) |
| CCC1=NNc2cccc3c(OC)ccc1c23 | 8.8 µM (active) |
| c1csc(Cn2cccc2CN2CCC[C@H](N3CCCC3)CC2)c1 | 5.2 µM (active) |
| CC(C)c1cc(-c2n[nH]c(=O)n2-c2ccc3c(ccn3C)c2)c(O)cc1O [GANETESPIB] | < 0.1 µM (active) |
| CCOc1cc(F)ccc1NC(=O)c1csc(-c2cnn(C)c2)n1 | 0.4 µM (active) |
| COc1cc(N2CCC(N(C)C)CC2)ccc1Nc1ncc(Cl)c(Nc2ccccc2P(C)(C)=O)n1 | 2.6 µM (active) |
| Cc1ccc([C@H](C)N(C)C(=O)Nc2cc(C(C)C)n[nH]2)cc1 | 5 µM (active) |
| N#Cc1nccnc1Sc1nnc(COc2ccc(Cl)cc2)o1 | 2.9 µM (active) |
| CN(C)c1nc(Nc2cccc(O)c2)nc2ccccc12 | 12.7 µM (active) |
| COc1ccc(-c2cnc3ccc(N4CCCC4)nn23)cc1OC | 4.3 µM (active) |
| COc1ccc(-c2cn3nc(N4CCC(C(=O)NCCN(C)C)CC4)sc3n2)cc1 | 3.6 µM (active) |

| Compound | CC50 |
| --- | --- |
| COc1cc2c(N3CCN(C(=O)Nc4ccc(OC(C)C)cc4)CC3)ccnc2cc1OCCCN1CCCCC1 | 7.4 µM (active) |
| COc1cc2ncnc(Nc3ccc(F)c(Cl)c3)c2cc1NC(=O)/C=C/CN1CCCCC1 [DACOMITINIB ANHYDROUS] | 6.5 µM (active) |
| CCC(C)NC(=O)COc1ccc(-c2nc(C(C)C)no2)cc1 (stereo not drawn) | 4.2 µM (active) |
| COc1ccc(-c2nc(CC3CCN(C(=O)NC(C)(C)C)C3)no2)cc1 (stereo not drawn) | 7.8 µM (active) |
| COc1cc(C(=O)NC2CCN(C)CC2)c(F)cc1Nc1ncc2c(n1)N(C1CCCC1)CC(F)(F)C(=O)N2C | 4.1 µM (active) |
| CCN(C(=O)c1ccc(-n2ccnc2)nc1)S(=O)(=O)c1ccc(C)cc1 | 11.7 µM (inactive) |
| C[C@H]1O[C@@H](O[C@H]2[C@@H](O)C[C@H](O[C@H]3[C@@H](O)C[C@H](O[C@H]4CC[C@@]5(C)[C@H](CC[C@@H]6[C@@H]5CC[C@]5(C)[C@@H](C7=CC(=O)OC7)CC[C@]65O)C4)O[C@@H]3C)O[C@@H]2C)C[C@H](O)[C@@H]1O [DIGITOXIN] | 0.1 µM (active) |
| Clc1cccc2[nH]nc(Br)c12 | 8.8 µM (active) |
| Cc1ccc(NC(=O)Nc2ccc(Cl)cc2)cc1NS(C)(=O)=O | 3.6 µM (active) |
| CCN(CC)S(=O)(=O)c1ccc(C(=O)Nc2cc(C)nn2-c2nc(C)cc(=O)[nH]2)cc1 | 6.5 µM (inactive) |
| CC1Oc2ccc(S(=O)(=O)N3CCN(C(=O)c4ccc(Br)cc4)CC3)cc2NC1=O (stereo not drawn) | 4 µM (active) |
| CCCOc1ccccc1-n1c(C)cn2c3c(=O)n(C)c(=O)n(C)c3nc12 | 6.7 µM (active) |
| N#Cc1ccc(CN2CCN(C(=O)c3ccc(Cn4cccn4)cc3)CC2)cc1 | 3.9 µM (active) |
| CCc1nc(-c2cc(S(=O)(=O)N3CCCC(C(=O)N4CCC(C)CC4)C3)c(C)s2)no1 (stereo not drawn) | 7.9 µM (active) |
| CC[C@@H]1C(=O)N(C)c2cnc(Nc3ccc(C(=O)NC4CCN(C)CC4)cc3OC)nc2N1C1CCCC1 [BI-2536] | 1.2 µM (active) |
| CCOCCCNC(=O)c1nnn(-c2ccc3ncccc3c2)c1C | 3.1 µM (active) |
| CNc1nc(N2CCCO[C@@H](CN)C2)nc2ccccc12 | 6.4 µM (active) |
| O=C(/C=C/c1ccc(O)c(O)c1)OCCc1ccccc1 [CAFFEIC ACID PHENETHYL ESTER] | 4.7 µM (active) |
| COc1cc(C(=O)N2CCC(N3CCN(C)CC3)CC2)ccc1Nc1ncc2c(n1)N(C)c1ccccc1C(=O)N2C | 4.5 µM (active) |
| Cc1ccc(NC(=O)c2nc(S(C)(=O)=O)ncc2Cl)cc1 | 4.1 µM (active) |
| CCOc1ccc(OCCN2CCC[C@H](n3ccnc3CC)C2)cc1 | 8.4 µM (active) |
| c1ccc(-c2ccc(CNC3CN4CCC3CC4)cc2)cc1 (stereo not drawn) | 5.6 µM (active) |

| Compound | CC50 |
| --- | --- |
| COc1cc2nccc(Oc3ccc(NC(=O)C4(C(=O)Nc5ccc(F)cc5)CC4)cc3)c2cc1OC [CABOZANTINIB] | 9.5 µM (active) |
| CC[C@H]1CN2CCc3cc(OC)c(OC)cc3[C@@H]2C[C@@H]1C[C@H]1NCCc2cc(OC)c(OC)cc21 [EMETINE HYDROCHLORIDE] | 0.2 µM (active) |
| CN[C@H]1CCCN(S(=O)(=O)c2ccc(Cl)cc2F)C1 | 17.1 µM (inactive) |
| O=C1c2ccccc2C(=O)N1Cn1ncc(Cl)c(Cl)c1=O | 11.5 µM (active) |
| CC(C)N(CCCNC(=O)Nc1ccc(C(C)(C)C)cc1)C[C@H]1O[C@@H](n2cc(Br)c3c(N)ncnc32)[C@H](O)[C@@H]1O | 10.1 µM (active) |
| CNC(=O)c1cc(Oc2ccccc2N)ccn1 | 32.7 µM (inactive) |
| Cc1c(O)cccc1C(=O)NC(CSc1ccccc1)C(O)CN1CC2CCCCC2CC1C(=O)NC(C)(C)C (stereo not drawn) | 11.3 µM (active) |
| CCOC(=O)C(C)Oc1cccc2c(=O)n(CC(=O)Nc3ccc4c(c3)OCCO4)ccc12 (stereo not drawn) | 50 µM (inactive) |
| CCCCOc1cccc(C(=O)Nc2nc3c(s2)CN(C)CC3)c1 | 7.9 µM (active) |
| COc1cc(Nc2cnc(C#N)c(O[C@H](C)CN(C)C)n2)ncc1-c1cnn(C)c1 | 10.4 µM (active) |
| O=C1COc2c(CCNCCN(C(=O)CCNCCc3ccc(Cl)c(Cl)c3)C3CCCCC3)ccc(O)c2N1 | 10.5 µM (active) |
| CNCCCN1c2ccccc2CCc2ccccc21 [DESIPRAMINE HYDROCHLORIDE] | 11.4 µM (active) |
| C=CCN(C)CCCCCCOc1ccc(C(=O)c2ccc(Br)cc2)c(F)c1 | 2.8 µM (active) |
| Cc1ccc(NC(=O)Nc2ccc3c(c2)N(S(C)(=O)=O)CC3)cc1 | 8.6 µM (inactive) |
| NC(=O)c1cnc(NCCc2ccc(O)c(Cl)c2)nc1NCc1ccccc1 | 4.2 µM (active) |
| COc1cc2c(cc1C(=O)Nc1ccccc1F)OCCCO2 | 13.8 µM (inactive) |
| O=S(=O)(c1ccc(S(=O)(=O)N2CCOc3ccccc32)cc1)N1CCCC1 | 4.2 µM (active) |
| COc1ccc(C(N)=O)cc1NC(=O)c1cc(Br)c[nH]1 | 1.2 µM (active) |
| CC1(C)CC(=O)c2c(C(F)(F)F)nn(-c3ccc(C(N)=O)c(N[C@H]4CC[C@H](O)CC4)c3)c2C1 [SNX-2112] | < 0.1 µM (active) |
| Oc1c(Cl)cc(Cl)cc1Sc1cc(Cl)cc(Cl)c1O [BITHIONOL] | 14.6 µM (inactive) |
| CCCCOc1ccc(-c2cc3c4nnc(CCC(=O)N5CCN(CC)CC5)n4ccn3n2)cc1 | 4.2 µM (active) |

| Compound | CC50 |
| --- | --- |
| COC(=O)[C@H](CC(C)C)NC(=O)c1ccc(NC[C@@H](N)CS)cc1-c1cccc2ccccc12 | 50 µM (inactive) |
| CC(C)N1CCN(Cc2nc(Cn3ccn4nc(-c5ccccc5)cc4c3=O)no2)CC1 | 8.2 µM (active) |
| COCC(=O)N1CCCN(Cc2ccc3c4c(cccc24)C(=O)OC3)CC1 | 13.4 µM (active) |
| COc1ccc(-n2ccc(CNc3ncnc(N)c3Cl)n2)cc1 | 3.1 µM (active) |
| COc1ccc(OC)c(N2C[C@@H](C(=O)Nc3ccc(Cl)cn3)CC2=O)c1 | 4.7 µM (active) |
| Cn1c(CNC(=O)c2ccc3c(c2)n(C)c(=O)c2ccnn23)nc2ccccc21 | 16.4 µM (inactive) |
| COc1ccccc1-c1cc(Nc2cccc(CS(N)(=O)=O)c2)ncn1 | 2.5 µM (active) |
| COCCn1cc(C(=O)Nc2nc3ccccc3[nH]2)c2ccccc21 | 11.7 µM (inactive) |
| Cc1ccc(Nc2nc(N3CCN(CCO)CC3)nc3c2cnn3C)cc1Cl | 4.8 µM (active) |
| COc1cc(OC2CCN(C)CC2)ccc1Nc1ncc2c(n1)n(C1CCCC1)c(=O)n2C | 5 µM (active) |
| C[C@@H]1CN(Cc2ccc(F)cc2)CCN1C(=O)COc1ccc(Cl)cc1NC(N)=O [BX 471 FREE BASE] | 4.8 µM (active) |
| Cc1ccnc(NC(=O)c2csc(Cl)c2)n1 | 4.8 µM (active) |
| O=C(O)c1ccc2cc(-c3ccc(O)c(C45CC6CC(CC(C6)C4)C5)c3)ccc2c1 [O-DEMETHYLATED ADAPALENE] | 8.3 µM (active) |
| CCC1(CC)CCN(c2ncnc3[nH]ccc23)CC1 | 8.3 µM (active) |
| COc1ccc2c(C)nc(Nc3nc(C)c(C)c(=O)[nH]3)nc2c1 | 6.7 µM (active) |
| CC(C)[C@]12O[C@H]1[C@@H]1O[C@]13[C@]1(O[C@H]1C[C@H]1C4=C(CC[C@@]13C)C(=O)OC4)[C@@H]2O [TRIPTOLIDE] | < 0.1 µM (active) |
| CN1CCN(S(=O)(=O)c2cccc(C(=O)Nc3nc(-c4ccccc4)cs3)c2)CC1 | 12.5 µM (active) |
| CNS(=O)(=O)c1cc(-c2cc(C(=O)Nc3cccc(OC)c3)n[nH]2)ccc1OC | 9.2 µM (active) |
| CO/N=C(/C(=O)OC)c1ccccc1COc1ccccc1C [KRESOXIM-METHYL] | 12.5 µM (active) |
| O=C(NCCCN1CCOCC1)C1CCN(c2nn3cc(-c4ccc(F)cc4)nc3s2)CC1 | 5.8 µM (active) |
| CCc1cccc2c(C3CCNCC3)c[nH]c12 | 11.4 µM (active) |
| COc1ccc(C(=O)N[C@@H]2CN(Cc3ccccc3)C[C@H]2CN(C)C)cc1 | 7.2 µM (active) |
